Measured values as given in US4968690A (priority 1989, dated 1990).
Where two headings read alike, the source gives them in different places.

What was measured:
quiescent normal cells = details: subtoxic concentrations; cited from earlier work
H.Ep.-2 cells = details: background; cited from earlier work
L1210 leukemia = details: background; cited from earlier work
malignant cell lines = details: subtoxic concentrations; cited from earlier work
L1210 cells = details: background; cited from earlier work
adenosine deaminase = details: background; cited from earlier work
[1] = system: Dengue virus Type II, strain 16681; test: Antiviral effect, Dengue II in Vero E6 cells (plaque reduction); format: cell-based; details: Vero C1008, read-out: % PFU Reduction, Dengue II
[2] = target: hamster liver adenosine-homocystine (AdoHyc) hydrolase (Mesocricetus auratus, UniProt A0A1U7RAJ1); test: Inhibition of hamster liver AdoHcy hydrolase
[3] = system: Coxsackie A9 virus, strain 1861; test: Antiviral effect, Coxsackie A9 in Viro E6 cells (plaque reduction); format: cell-based; details: read-out: % PFU Reduction, Coxsackie 9A
[4] = system: Polio Type III virus (Sabin oral vaccine strain); test: microbe, parasite or virus in culture; format: cell-based
[5] = system: cells used to support virus growth; test: Toxicity to cells used to support virus growth; format: cell-based; details: listed concentrations 50, 25, 5 μg/ml
Source text: ^(a) Concentrations listed were nontoxic to cells used to support
^(a) Concentrations listed were noncytotoxic to cells used to support

HL-60 cells [6] = test: Cell viability / acute cytotoxicity in HL-60 cells; format: cell-based, human
Source text: This reduced toxicity provides excellent selectivity and potency as an antiviral agent.

[7] = background; cited from earlier work
[8] = background; cited from earlier work; remark: listed apart in the source
[9] = system: enzyme which hydrolyzes S-adenosyl-L-homocysteine (AdoHcy); details: background; cited from earlier work
L1210 tumor cells = test: Cytotoxicity against L1210 tumor cells in culture; format: cell-based; details: Mus musculus, 48 hour exposure
c-myc mRNA = c-myc mRNA levels in HL-60 cells; format: cell-based, human; details: preceding induction of mature myeloid cells
Source text: (§1) The effect of this compound on differentiation, and nucleic acid and nucleotide biosynthesis were examined in the malignant human promyelocytic leukemia cell line, HL-60. […] During this exposure interval, pronounced differentiation to mature myeloid cells occurred wherein 95% of the cell population reduced nitroblue tetrazolium four days after exposure to 10^-7 M CPE-C.

[10] = system: Dengue virus Type II, strain 16681; test: Antiviral effect, Dengue Type II in BHK21 cells (plaque reduction); format: cell-based; details: for inhibition at 5 µg/mL / inhibition at 25 µg/mL / inhibition at 50 µg/mL: Dengue virus, BHK-21, BHK21 cells, read-out: % PFU Reduction, Dengue Type II; for inhibition at 5 µg/mL: 5 μg/ml; for inhibition at 25 µg/mL: 25 μg/ml; for inhibition at 50 µg/mL: 50 μg/ml
[11] = system: Adenovirus Type 7, strain V1012; test: Antiviral effect, Adenovirus 7 in Hep2 cells (plaque reduction); format: cell-based
Source text: ^(c) Adenovirus Type 7, strain V1012 in Hep2 cells.

[12] = system: DNA synthesis / RNA synthesis in HL-60 cells; test: DNA and RNA synthesis in HL-60 cells; format: cell-based, human
Source text: as §1

[13] = system: Herpes Simplex Type II virus, strain 28382; test: Antiviral effect, Herpes Simplex II in mink lung cells (plaque reduction); format: cell-based; details: for inhibition at 5 µg/mL: 5 μg/ml; for inhibition at 25 µg/mL: 25 μg/ml
Source text: ^(b) Herpes Simplex Type II virus, strain 28382 in mink lung cells.
^(d) Plaque forming units (PFU) is a measure of the infectivity of th
^(e) Multiplicity of infection (MOI) 2.0 PFU/ml.

[14] = system: CTP, UTP, ATP, GTP levels in HL-60 cells; test: Nucleotide (CTP, UTP, ATP, GTP) levels in HL-60 cells; format: cell-based, human
Source text: as §1

HL-60 cells [15] = test: Growth inhibition and differentiation of HL-60 cells (nitroblue tetrazolium reduction); format: cell-based, human
Source text: as §1

viruses = test: General antiviral evaluation; format: cell-based; details: compared with CPE-C
[16] = read-out: % PFU Reduction, Polio III
[17] = read-out: % PFU Reduction, Polio Type III
[18] = mink lung cells, first value of cell, presumably MOI 2.0 PFU/ml, read-out: % PFU Reduction, Herpes Simplex II (first value)
[19] = mink lung cells, second value of cell, read-out: % PFU Reduction, Herpes Simplex II (second value)

Nc1ncnc2c1ncn2[C@@H]1C[C@H](CO)[C@@H](O)[C@H]1O [C-Ado]
cell proliferation of quiescent normal cells (quiescent normal cells): induced cell proliferation | cytotoxicity to H.Ep.-2 cells in culture (H.Ep.-2 cells): highly cytotoxic | activity in in vivo mouse L1210 model (L1210 leukemia): inactivity | growth in malignant cell lines (malignant cell lines): inhibited growth | cytotoxicity to L1210 cells in culture (L1210 cells): highly cytotoxic | affinity for adenosine deaminase relative to adenosine (adenosine deaminase): hundredfold lower | deamination by adenosine deaminase (adenosine deaminase): also deaminated by adenosine deaminase

Nc1nccc2c1ncn2[C@@H]1C=C(CO)[C@@H](O)[C@H]1O [3-Deazaneplanocin A, 4-Amino-1-[(1'R,2'S,3'R)-4'-hydroxymethyl-2',3'-dihydroxy-4'-cyclopenten-1'-yl]imidazo[4,5-c]pyridine]
inhibition at 5 µg/mL [1]: 14.2% | inhibition at 25 µg/mL [1]: 95% | inhibition at 50 µg/mL [1]: 98.9% | Ki [2]: 0.05 nM | inhibition of AdoHyc hydrolase (in words) ([2]; summary statement): particularly potent inhibitor | mode of inhibition ([2]; with adenosine): competitive inhibitor | inhibition at 5 µg/mL [3]: 69.4% | inhibition at 25 µg/mL [3]: 77.2% | inhibition at 50 µg/mL [3]: 89.4% | inhibition at 5 µg/mL [4, 16]: 44.4% | inhibition at 25 µg/mL [4, 16]: 77.7% | inhibition at 50 µg/mL [4, 16]: 83.3% | toxicity to cells used to support virus growth [5]: nontoxic | toxicity (in words) (HL-60 cells [6]; summary statement, compared with neplanocin A): without the toxicity of neplanocin A | change in cell viability (HL-60 cells [6]; two days of continuous exposure): Little or no change in cell viability

Nc1ncnc2c1ncn2[C@@H]1C=C(CO)[C@@H](O)[C@H]1O [Neplanocin A, 9-[(1'R,2'S,3'R)-4-Hydroxymethyl-2',3'-dihydroxy-4-cyclopenten-1'-yl]adenine]
side effects [7]: multiplicity of side effects including cytotoxicity | phosphorylation [8]: readily phosphorylated | inhibition of AdoHcy-hydrolyzing enzyme (in words) [9]: potent inhibitor | toxicity to HL-60 cells (HL-60 cells [6]; 24 hrs. exposure, equimolar concentration, vs 3-deazaneplanocin): more toxic

Nc1ncnc2c1nnn2[C@@H]1C=C(CO)[C@@H](O)[C@H]1O [Formula 8-Aza-CPE-A, 7-Amino-3-[(1'R,2'S,3'R)-4'-hydroxymethyl-2',3'-dihydroxy-4'-cyclopenten-1'-yl]-3H-1,2,3-triazolo[4,5-d]pyrimidine]
IC50 (L1210 tumor cells): 3000 nM

Nc1nccc2c1ncn2[C@@H]1O[C@H](CO)[C@@H](O)[C@H]1O [3-deazaadenosine]
phosphorylation and deamination [8]: resistance towards phosphorylation and deamination

Nc1ccn([C@@H]2C=C(CO)[C@@H](O)[C@H]2O)c(=O)n1 [CPE-C, 4-amino-1-[(1'R,2'S,3'R)-4'-hydroxymethyl-4'-cyclopenten-1'-yl]-2(1H)pyrimidinone]
c-myc mRNA levels (c-myc mRNA): inhibition of c-myc mRNA levels which was more pronounced than the reduction in total cellular RNA synthesis | inhibition at 5 µg/mL [10]: 0% | inhibition at 25 µg/mL [10]: 2.5% | inhibition at 50 µg/mL [10]: 95% | inhibition at 5 µg/mL [4, 17]: 73.2% | inhibition at 25 µg/mL [4, 17]: 82.1% | inhibition at 50 µg/mL [4, 17]: 94.6% | inhibition at 5 µg/mL ([11]; Human mastadenovirus B, HEp-2, 5 μg/ml, Hep2 cells, read-out: % PFU Reduction, Adenovirus 7): 70% | inhibition at 25 µg/mL ([11]; Human mastadenovirus B, HEp-2, 25 μg/ml, Hep2 cells, read-out: % PFU Reduction, Adenovirus 7): 80% | inhibition at 50 µg/mL ([11]; Human mastadenovirus B, HEp-2, 50 μg/ml, Hep2 cells, read-out: % PFU Reduction, Adenovirus 7): 94% | antiviral activity (in words), Adenovirus Type 7 ([11]; non-cytotoxic concentrations): excellent activity | toxicity to cells used to support virus growth [5]: noncytotoxic | RNA synthesis ([12]; 10^-7 M, relative to DNA synthesis): inhibited to a lesser extent | activity at 0.1 µM ([12]; Homo sapiens, HL-60, 24 hrs. after exposure to 10^-7 M): 10% | inhibition at 5 µg/mL [13, 18]: 98.7% | inhibition at 5 µg/mL [13, 19]: 98.6% | inhibition at 25 µg/mL [13, 18]: 95.7% | inhibition at 25 µg/mL [13, 19]: 99.5% | inhibition at 50 µg/mL ([13]; 50 μg/ml, mink lung cells, second value of cell, read-out: % PFU Reduction, Herpes Simplex II (second value)): 100% | antiviral activity (in words), Herpes Simplex Type II ([13]; non-cytotoxic concentrations): excellent activity | inhibition at 50 µg/mL ([13]; read-out: % PFU Reduction, Herpes Simplex II (first value)): 97.4% | level of CTP (in words) ([14]; during CPE-C treatment): rapid and pronounced inhibition | level of UTP, ATP or GTP ([14]; during CPE-C treatment): not of UTP, ATP or GTP | CTP levels following drug removal ([14]; following drug removal): sustained reduction in CTP levels | inhibition of cell growth (HL-60 cells [15]; continuous exposure for 5 days, 10^-8 to 10^-6 M): progressive inhibition of cell growth | differentiation to a non-malignant phenotype (HL-60 cells [15]; continuous exposure for 5 days, 10^-8 to 10^-6 M, nitroblue tetrazolium reduction): differentiation to a non-malignant phenotype | cell population that reduced nitroblue tetrazolium (HL-60 cells [15]; four days after exposure to 10^-7 M): 95 % of the cell population | activity as cancer cell differentiating agent (in words) (HL-60 cells [15]; summary statement): potent cancer cell differentiating agent

3-deazaaristeromycin
side effects [7]: devoid of some of the undesirable side effects | phosphorylation and deamination [8]: resistance towards phosphorylation and deamination | inhibition of AdoHcy-hydrolyzing enzyme (in words) [9]: very potent and specific inhibitor

O=c1ccn([C@@H]2C=C(CO)[C@@H](O)[C@H]2O)c(=O)[nH]1 [CPE-U]
antiviral activity (in words), Dengue Type II [10]: good activity | inhibition at 5 µg/mL [10]: 2% | inhibition at 25 µg/mL [10]: 91% | inhibition at 50 µg/mL [10]: 93% | toxicity to cells used to support virus growth [5]: noncytotoxic | general antiviral activity (in words) (viruses): less effective as a general antiviral agent
